Results taken from article PMC6220894 (Food and chemical toxicology : an international journal …, 2018).
Like-named read-outs stand apart in the source and are kept apart here.

Tests used:
[1] = test system: Salmonella typhimurium TA 98; experiment: Ames bacterial reverse mutation assay, pre-incubation method; format: cell-based
[2] = test system: Salmonella typhimurium TA 100; format: cell-based; details: plate incorporation
[3] = Stability in rabbit plasma; format: in vitro ADME
[4] = In vitro metabolism in cryopreserved hepatocytes; format: in vitro ADME; details: human hepatocytes; 25 µM; 4 hours
hERG = hERG (Homo sapiens, UniProt Q12809); format: cell-based
Sequence of hERG (Q12809 whole entry): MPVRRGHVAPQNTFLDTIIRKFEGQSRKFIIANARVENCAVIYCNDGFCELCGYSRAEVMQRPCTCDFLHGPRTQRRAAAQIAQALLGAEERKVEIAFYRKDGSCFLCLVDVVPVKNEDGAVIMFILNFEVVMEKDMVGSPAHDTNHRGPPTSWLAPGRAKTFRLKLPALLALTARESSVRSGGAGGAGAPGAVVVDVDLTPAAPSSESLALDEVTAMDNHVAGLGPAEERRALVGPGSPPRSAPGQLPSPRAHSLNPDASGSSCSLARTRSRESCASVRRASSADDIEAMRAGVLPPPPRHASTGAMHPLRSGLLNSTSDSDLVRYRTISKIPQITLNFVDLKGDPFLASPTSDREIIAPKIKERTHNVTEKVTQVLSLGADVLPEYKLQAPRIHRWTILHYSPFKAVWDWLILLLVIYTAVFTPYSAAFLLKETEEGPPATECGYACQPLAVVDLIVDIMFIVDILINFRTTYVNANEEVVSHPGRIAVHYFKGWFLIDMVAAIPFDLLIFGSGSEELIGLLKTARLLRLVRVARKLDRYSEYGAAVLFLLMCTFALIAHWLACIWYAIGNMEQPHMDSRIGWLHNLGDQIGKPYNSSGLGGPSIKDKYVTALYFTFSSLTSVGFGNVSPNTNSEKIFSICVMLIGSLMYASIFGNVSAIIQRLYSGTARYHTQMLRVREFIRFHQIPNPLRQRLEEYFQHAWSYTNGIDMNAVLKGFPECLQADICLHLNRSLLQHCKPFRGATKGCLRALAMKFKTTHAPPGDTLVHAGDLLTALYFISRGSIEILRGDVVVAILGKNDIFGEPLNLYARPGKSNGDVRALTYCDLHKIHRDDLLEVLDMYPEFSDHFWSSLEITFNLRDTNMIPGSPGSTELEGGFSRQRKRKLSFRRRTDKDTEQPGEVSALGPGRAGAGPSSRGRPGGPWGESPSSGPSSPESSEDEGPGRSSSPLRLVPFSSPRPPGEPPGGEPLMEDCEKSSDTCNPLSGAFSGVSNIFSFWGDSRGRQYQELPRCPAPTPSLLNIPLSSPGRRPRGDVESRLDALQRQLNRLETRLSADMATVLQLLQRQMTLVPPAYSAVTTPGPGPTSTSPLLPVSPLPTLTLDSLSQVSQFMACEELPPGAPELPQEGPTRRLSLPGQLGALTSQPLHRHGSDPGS

[5] = Stability in rabbit whole blood; format: in vitro ADME
[6] = Stability in human whole blood; format: in vitro ADME; details: 37°C, no increase in salicylic acid
C. elegans = details: ref Nguyen et al., 2016; cited from earlier work
[7] = In vitro metabolism in cryopreserved hepatocytes; format: in vitro ADME; details: rat hepatocytes; 25 µM; 4 hours
[8] = Red blood cell distribution in whole blood; format: in vitro ADME; details: human, whole blood (pooled, EDTA)
[9] = test system: Salmonella typhimurium TA 1537; experiment: Ames bacterial reverse mutation assay, pre-incubation method; format: cell-based
[10] = test system: Salmonella typhimurium TA 98; experiment: Ames bacterial reverse mutation assay, plate incorporation method; format: cell-based
CYP1A2 = experiment: CYP mRNA induction in human hepatocytes; format: in vitro ADME; details: 0.3, 3, 30 µM; 72 hours; 3 donors
[11] = −S9, 0.05 mg/plate as printed (third dose row)
[12] = +S9, 0.05 mg/plate as printed (third dose row)

CC(=O)O.NCc1ccccc1O [2-HOBA, 2-Hydroxybenzylamine acetate]
Mean plate counts (revertant colonies) ([1]; +S9, 0.05 mg/plate): 25.7±3.1 | Mean plate counts (revertant colonies) ([1]; +S9, 0.15 mg/plate): 23.7±2.5 | Mean plate counts (revertant colonies) ([1]; +S9, 0.5 mg/plate): 24.3±2.1 | Mean plate counts (revertant colonies) ([1]; +S9, 1.5 mg/plate): 25.7±3.1 | Mean plate counts (revertant colonies) ([1]; +S9, 5 mg/plate): 22.3±3.2 | Change in revertant colony counts vs negative control (mutagenicity) ([1]; +S9 and −S9, all dose levels): No changes in revertant colony counts were observed | Mean plate counts (revertant colonies) ([1]; −S9, 0.05 mg/plate): 20.0±1.0 | Mean plate counts (revertant colonies) [1, 11]: 20.7±2.1 | Mean plate counts (revertant colonies) ([1]; −S9, 0.15 mg/plate): 16.7±1.5 | Mean plate counts (revertant colonies) ([1]; −S9, 1.5 mg/plate): 22.3±3.2 | Mean plate counts (revertant colonies) ([1]; −S9, 5 mg/plate): 23.0±1.0 | Mean plate counts (revertant colonies) ([2]; +S9, 0.05 mg/plate): 106.3±1.5 | Mean plate counts (revertant colonies) [2, 12]: 96.3±5.1 | Mean plate counts (revertant colonies) ([2]; +S9, 0.15 mg/plate): 104.7±8.1 | Mean plate counts (revertant colonies) ([2]; +S9, 1.5 mg/plate): 106.7±6.1 | Mean plate counts (revertant colonies) ([2]; +S9, 5 mg/plate): 101.3±4.2 | Change in revertant colony counts vs negative control (mutagenicity) ([2]; +S9 and −S9, all dose levels): No changes in revertant colony counts were observed | Mean plate counts (revertant colonies) ([2]; −S9, 0.05 mg/plate): 90.3±1.5 | Mean plate counts (revertant colonies) [2, 11]: 100.0±9.2 | Mean plate counts (revertant colonies) ([2]; −S9, 0.15 mg/plate): 105.3±8.3 | Mean plate counts (revertant colonies) ([2]; −S9, 1.5 mg/plate): 101.3±3.2 | Mean plate counts (revertant colonies) ([2]; −S9, 5 mg/plate): 100.7±2.1 | fraction metabolized ([3]; within 30 min): more than 60% | fraction metabolized ([3]; within 2 hours): nearly all | principle metabolites observed [4]: salicylic acid (M1) and the glycoside conjugate metabolite of 2-HOBA | IC50 (hERG): > 100 µM | Inhibition of hERG current (hERG; 0.1 µM): no inhibition | Inhibition of hERG current (hERG; 1 µM, mean ± SE): 3.0 ± 0.5 % inhibition | Inhibition of hERG current (hERG; 10 µM, mean ± SE): 9.7 ± 1.8 % inhibition | Inhibition of hERG current (hERG; 100 µM, mean ± SE): 29.1 ± 1.3 % inhibition | stability in the presence of semicarbazide ([5]; rabbit blood fortified with semicarbazide (100 µm)): prevented the degradation of 2-HOBA | time until undetectable ([5]; rabbit whole blood, 1 µM, 37°C): ≤ 2 h | fraction metabolized ([5]; rabbit whole blood, within 30 min): more than 60% | fraction metabolized ([5]; rabbit whole blood, within 2 hours): nearly all | metabolism in whole blood [6]: some 2-HOBA metabolism was observed | lifespan (C. elegans): increased lifespan | principle metabolites observed [7]: salicylic acid (M1) and the glycoside conjugate metabolite of 2-HOBA | Kp at 2 h, 1 µM [8]: 1.26 ± 0.01 | Kp at 2 h, 10 µM [8]: 1.08 | blood plasma ratio at 2 h, 1 µM [8]: 1.12 ± 0.03 | blood plasma ratio at 2 h, 10 µM [8]: 1.04 | Mean plate counts (revertant colonies) ([9]; +S9, 0.05 mg/plate): 6.7±0.6 | Mean plate counts (revertant colonies) ([9]; +S9, 0.15 mg/plate): 7.3±1.2 | Mean plate counts (revertant colonies) ([9]; +S9, 0.5 mg/plate): 8.0±1.0 | Mean plate counts (revertant colonies) ([9]; +S9, 1.5 mg/plate): 7.0±1.0 | Mean plate counts (revertant colonies) ([9]; +S9, 5 mg/plate): 6.3±1.5 | Change in revertant colony counts vs negative control (mutagenicity) ([9]; +S9 and −S9, all dose levels): No changes in revertant colony counts were observed | Mean plate counts (revertant colonies) ([9]; −S9, 0.05 mg/plate): 6.7±0.6 | Mean plate counts (revertant colonies) [9, 11]: 7.0±0.0 | Mean plate counts (revertant colonies) ([9]; −S9, 0.15 mg/plate): 6.0±1.0 | Mean plate counts (revertant colonies) ([9]; −S9, 1.5 mg/plate): 6.0±1.0 | Mean plate counts (revertant colonies) ([9]; −S9, 5 mg/plate): 6.3±1.2 | Mean plate counts (revertant colonies) ([10]; +S9, 0.05 mg/plate): 20.7±1.2 | Mean plate counts (revertant colonies) [10, 12]: 20.7±1.2 | Mean plate counts (revertant colonies) ([10]; +S9, 0.15 mg/plate): 21.0±3.0 | Mean plate counts (revertant colonies) ([10]; +S9, 1.5 mg/plate): 21.3±1.5 | Mean plate counts (revertant colonies) ([10]; +S9, 5 mg/plate): 22.0±2.0 | Change in revertant colony counts vs negative control (mutagenicity) ([10]; +S9 and −S9, all dose levels): No changes in revertant colony counts were observed | Mean plate counts (revertant colonies) ([10]; −S9, 0.05 mg/plate): 19.7±1.5 | Mean plate counts (revertant colonies) [10, 11]: 22.0±3.6 | Mean plate counts (revertant colonies) ([10]; −S9, 0.15 mg/plate): 20.0±1.0 | Mean plate counts (revertant colonies) ([10]; −S9, 1.5 mg/plate): 21.3±1.5 | Mean plate counts (revertant colonies) ([10]; −S9, 5 mg/plate): 21.0±2.0 | CYP1A2 mRNA induction (concentration-dependent >2-fold increase) (CYP1A2): no evidence of mRNA induction
